Test results published in patent publication US20100221763A1, “Specific Acceptors for Transferases to Saccharides and Method for Obtaining and Using Same” (Health Research, Inc, priority 2005, published 2010).
Where “and” joins values, the source holds several entries; their conditions need not be identical. Equal values may be shown once.

Legend:
[1] = molecular target: T1, Rat recombinant α2,3(O)ST (Rattus norvegicus, UniProt Q11205); experiment: Sialyltransferase assay with cloned α2,3(O)ST; assay type: biochemical; conditions: for Sialyltransferase activity (%) Cloned α2,3(O)ST: Table I, acceptor 7.5 mM, 100% = 40560 CPM (3-O-MeGalβ1,4GlcNAcβ1,6(Galβ1,3)GalNAcα-O-Bn); for Km / Vmax: CMP-NeuAc 150 μM, Lineweaver-Burke plot
T1 construct: purchased Calbiochem
T1 sequence (Q11205 1-350): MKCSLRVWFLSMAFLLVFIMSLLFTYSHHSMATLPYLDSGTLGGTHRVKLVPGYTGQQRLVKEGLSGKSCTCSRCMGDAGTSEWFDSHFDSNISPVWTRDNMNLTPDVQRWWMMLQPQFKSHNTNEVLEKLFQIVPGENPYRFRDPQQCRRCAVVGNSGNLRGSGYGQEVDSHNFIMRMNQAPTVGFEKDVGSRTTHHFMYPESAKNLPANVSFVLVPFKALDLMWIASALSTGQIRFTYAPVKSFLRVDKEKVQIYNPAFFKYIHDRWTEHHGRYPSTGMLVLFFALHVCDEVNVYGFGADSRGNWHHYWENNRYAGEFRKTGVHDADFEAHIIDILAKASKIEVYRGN

[2] = molecular target: T2, Rat recombinant α2,3(N)ST (Rattus norvegicus, UniProt Q02734); experiment: Sialyltransferase assay with cloned α2,3(N)ST; assay type: biochemical; conditions: Table I; acceptor 7.5 mM; 100% = 29520 CPM (Galβ1,4GlcNAcβ-O—Al)
T2 construct: purchased Calbiochem
T2 sequence (Q02734 29-374 limits assumed): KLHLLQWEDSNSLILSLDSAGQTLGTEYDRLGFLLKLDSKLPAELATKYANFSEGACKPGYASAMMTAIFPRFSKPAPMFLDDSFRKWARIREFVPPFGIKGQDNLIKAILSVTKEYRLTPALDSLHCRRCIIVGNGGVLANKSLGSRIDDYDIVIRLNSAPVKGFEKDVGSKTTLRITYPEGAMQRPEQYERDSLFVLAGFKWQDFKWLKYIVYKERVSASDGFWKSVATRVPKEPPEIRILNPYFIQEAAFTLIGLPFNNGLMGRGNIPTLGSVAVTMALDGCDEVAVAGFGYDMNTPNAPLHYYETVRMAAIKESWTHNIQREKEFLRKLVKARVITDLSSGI
Procedure, shortened: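 Each rat recombinant sialyltransferase incubated 2 h at 37° C in 0.1M NaCacodylate pH6.0 with acceptor (typically 7.5 mM) and CMP-[9-³H]NeuAc (typically 0.2 μci; 20 μci/nmol), in duplicate, acceptor-free blank subtracted. Radiolabelled product separated on Dowex-1-Formate or Sep-Pak C18 and counted by liquid scintillation.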

[3] = molecular target: T3, Rat recombinant α2,6(N)ST (Rattus norvegicus, UniProt P13721); experiment: Sialyltransferase assay with cloned α2,6(N)ST; assay type: biochemical; conditions: Table I; acceptor 7.5 mM; 100% = 43500 CPM (Galβ1,4GlcNAcβ-O—Al)
T3 construct: purchased Calbiochem
T3 sequence (P13721 1-403): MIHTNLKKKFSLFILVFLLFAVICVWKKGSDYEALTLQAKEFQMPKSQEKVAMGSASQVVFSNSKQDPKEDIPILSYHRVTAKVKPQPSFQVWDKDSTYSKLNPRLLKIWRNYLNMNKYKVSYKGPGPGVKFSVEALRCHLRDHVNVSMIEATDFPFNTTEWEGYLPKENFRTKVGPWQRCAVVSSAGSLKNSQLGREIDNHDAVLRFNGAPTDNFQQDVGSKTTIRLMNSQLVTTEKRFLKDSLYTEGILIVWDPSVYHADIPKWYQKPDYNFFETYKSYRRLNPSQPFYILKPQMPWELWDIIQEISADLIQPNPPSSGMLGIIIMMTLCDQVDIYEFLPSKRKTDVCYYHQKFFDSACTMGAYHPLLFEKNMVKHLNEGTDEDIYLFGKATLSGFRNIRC

LNCaP α2,3(O)ST = experiment: Sialyltransferase assay with LNCaP cell extract; assay type: biochemical, human; conditions: Table I; acceptor 7.5 mM; 100% = 30930 CPM (3-O-MeGalβ1,4GlcNAcβ1,6(Galβ1,3)GalNAcα-O-Bn)
Procedure, shortened: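 LNCaP Triton X-100 extract (5 mg protein/ml; 0.1M Tris-maleate pH6.3) incubated with acceptor (typically 7.5 mM) and CMP-[9-3H]NeuAc (typically 0.2 μCi) in 0.1M Na cacodylate pH6.0, 2 h at 37 °C, in duplicate. Radioactive product separated on Dowex-1-formate, Sep-Pak C18 or Biogel P2 and counted by scintillation; blank without acceptor subtracted.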

| Compound | Sialyltransferase activity (%) Cloned α2,3(O)ST [1] | Sialyltransferase activity (%) Cloned α2,3(N)ST [2] | Sialyltransferase activity (%) Cloned α2,6(N)ST [3] [%] | Km [1] [µM] | Vmax [1] | Sialyltransferase activity (%) LNCaP α2,3(O)ST (LNCaP α2,3(O)ST) [%] |
| --- | --- | --- | --- | --- | --- | --- |
| CO[C@H]1[C@H](O[C@H]2[C@H](O)[C@@H](CO)OC(O)[C@@H]2NC(C)=O)O[C@H](CO)[C@H](O)[C@@H]1O (stereo partly shown) [2-O-MeGalβ1,3GlcNAc] | 2.9% | 115.3% | 3.7 |  |  |  |
| CO[C@H]1[C@H](O[C@H]2[C@H](O)[C@@H](NC(C)=O)C(O)O[C@@H]2CO)O[C@H](CO)[C@H](O)[C@@H]1O (stereo partly shown) [2-O-MeGalβ1,4GlcNAc] | 0.2% | 60.0% | 90.1 |  |  |  |
| CO[C@H]1O[C@H](CO)[C@H](O)[C@H](O[C@@H]2O[C@H](CO)[C@H](O)[C@H](O[C@@H]3O[C@H](C)[C@H](O)[C@H](O)[C@H]3O)[C@H]2NC(C)=O)[C@H]1O [D-Fucβ1,3GalNAcβ1,3Galα-O-Me] | 115.6^3% | 3.1% | 2.5 | 560 | 1873 pmol/h | 9.6 |

Now from value to compound, other results behind:

| Sialyltransferase activity (%) Cloned α2,3(O)ST [1] | Sialyltransferase activity (%) Cloned α2,3(N)ST [2] | Sialyltransferase activity (%) Cloned α2,6(N)ST [3] [%] | Km [1] [µM] | Vmax [1] | Compound | Sialyltransferase activity (%) LNCaP α2,3(O)ST (LNCaP α2,3(O)ST) [%] |
| --- | --- | --- | --- | --- | --- | --- |
| 112.0% | 24.1% | 0.2 |  |  | C=CCO[C@H]1O[C@H](CO)[C@H](O)[C@H](O[C@@H]2O[C@H](CO)[C@H](O)[C@H](O)[C@H]2O)[C@H]1NC(C)=O [Galβ1,3GalNAcα-O—Al] | 34.4 |
| 120.8% and 120.8^2% | 106.8% and 106.8^20% | 1.1 | 120 | 1293^13 pmol/h | CO[C@H]1O[C@H](CO)[C@H](O)[C@H](O[C@@H]2O[C@H](CO)[C@H](O)[C@H](O[C@@H]3O[C@H](CO)[C@H](O)[C@H](O)[C@H]3O)[C@H]2NC(C)=O)[C@H]1O [Galβ1,3GalNAcβ1,3Galα-O-Me] | 34.3 |
